The results in this text go back to patent US6448247B1, “Method for treating an inflammatory disease” (Sankyo Company, Limited, priority 1995, dated 2002).

Structures are written as SMILES. Read-outs that look alike come from different tables or passages of the source.

The term IC50 denotes the concentration that inhibits the measured activity by half.

The test system of assay [1] is bronchoconstriction induced with [Nle^10]-NKA[4-10], an NK2 receptor agonist. The assay can be described thus: Inhibitory Effect on NKA-Induced Bronchoconstriction. The format is in vivo, guinea pig. The conditions noted are these: i.v., male Hartley guinea pigs, airway pressure, test drug 5 min before [Nle^10]-NKA[4-10] i.v. Here is the method:
The inhibitory effect on bronchoconstriction induced with [Nle^10]-NKA[4-10], an NK2 receptor agonist having higher specificity than neurokinin A (NKA), was assessed based on airway pressure as an index according to the modified method of Konzett-Rössler [Naunyn-Schmiedebergs Arch.Exp.Pathol.Pharmakol., 195, 71, (1940)] using guinea pigs (body weight: approximately 500 g, male Hartley guinea pigs).
After canulating the trachea of the guinea pigs under pentobarbital anaesthesia (30 mg/kg, s.c.) and treatment with gallamine (20 mg/kg, i.v.), the animals were ventilated artificially with a constant volume respiration pump (UgoBasile, 7025) at a frequency of 60 per minute and a tidal volume of 8 ml/kg. Airway pressure during artificial respiration was amplified by means of a pressure transducer (Nihon Koden, TP-200T) installed in a branch of the trachea cannula, detected (Nihon Koden, AP-610G), and recorded with a recorder (Nihon Koden, WT-685G). Following pre-treatment with atropine (1 mg/kg, i.v.) and propranolol (1 mg/kg, i.v.), the test drug was administered intravenously. Five minutes later, bronchoconstriction was induced with [Nle^10]-NKA[4-10] at […], i.v., and then airway pressure was measured for 10 minutes. The inhibitory effect was determined based on the intensity of bronchoconstriction of guinea pigs not treated with the test drug, and expressed as the percent of inhibition (%) and the dose level that caused inhibition of 50% (ID50).

In assay [2] the test system is increased vascular permeability induced by substance P (SP), an NK1 receptor agonist. The assay can be described thus: Inhibitory Effect on SP-Induced Increased Vascular Permeability. The class given is in vivo, guinea pig. The following applies: i.v., male Hartley guinea pigs, pigment (Evans blue) leakage into primary bronchus 15 min after SP i.v. Here is the method:
The inhibitory effect on increased vascular permeability induced by substance P (SP), an NK1 receptor agonist, was assessed based on the amount of pigment leakage as an index using guinea pigs (body weight: approx. 400 g, male Hartley guinea pigs). Immediately after administering pigment (Evans blue: 20 mg/kg, i.v.) and the test drug in that order into the femoral vein of the guinea pigs under pentobarbital anaesthesia (25 mg/kg, i.p.), increased vascular permeability was induced by administration of SP ([…], i.v.). Fifteen minutes later, the guinea pigs were sacrificed by chloroform anaesthesia and the amount of pigment that leaked into the primary bronchus was measured according to the method of Harada (J. Pharm. Pharmacol., 23, 218, 1971). Inhibitory effect was determined based on the amount of pigment leakage found in guinea pigs not treated with the test drug, and expressed as the percent of inhibition (%) and the dose level that caused inhibition of 50% (ID50).

In the next assay the target is T1, NK2 receptors (Cavia porcellus, UniProt Q64077).
T1 construct: A crude membrane fraction was prepared from the ileum of male Hartley guinea pigs; from tissue; host or cells: guinea pig ileum (crude membrane fraction)
T1 sequence (Q64077 1-402): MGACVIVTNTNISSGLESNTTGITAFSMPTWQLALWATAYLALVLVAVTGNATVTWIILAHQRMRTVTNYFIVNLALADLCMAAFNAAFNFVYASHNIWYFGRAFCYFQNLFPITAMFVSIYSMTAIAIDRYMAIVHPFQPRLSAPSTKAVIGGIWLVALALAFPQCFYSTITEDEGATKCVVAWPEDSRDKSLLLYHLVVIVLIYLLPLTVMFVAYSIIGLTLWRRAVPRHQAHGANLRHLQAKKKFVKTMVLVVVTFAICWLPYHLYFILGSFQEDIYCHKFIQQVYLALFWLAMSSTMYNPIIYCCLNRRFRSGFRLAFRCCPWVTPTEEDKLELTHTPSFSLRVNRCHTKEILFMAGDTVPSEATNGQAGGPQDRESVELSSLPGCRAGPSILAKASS
The assay can be described thus: NK2 Receptor Binding Test. Also on record: species or system guinea pig. As for the experimental part: (a) Preparation of Crude Ileum Membrane Fraction
A crude membrane fraction was prepared from the ileum of male Hartley guinea pigs. The guinea pigs were bled from the cava abdominalis under chloroform anaesthesia and the ileum was extracted immediately.
After the contents, secreta and epithelium of the lumen had been scraped off using a glass slide, the extracted ileum was thinly cut in a buffer (1) (50 mM Tris-HCl, pH 7.4) and then homogenised in a buffer (2) [buffer (1) containing 120 mM sodium chloride and 5 mM potassium chloride] using a Polytron homogenizer.
(§1) The tissue mass was removed from the homogenate by filtration with a nylon mesh (50 μm) and the supernatant was centrifuged (30,000×g, 30 minutes, 4° C.). The resultant pellet was resuspended in an ice-cooled buffer (3) [buffer (1) containing 10 mM EDTA and 30 mM potassium chloride], allowed to stand at 4° C. for 60 minutes and then washed centrifugally twice (30,000×g, 15 minutes, 4° C.).
(§2) The crude membrane fraction was preserved at −80° C. before use.
(§3) (b) Receptor Binding Test
To a mixed solution (250 μl) of the test drug and [^3H]-SR-48968 (manufactured by Amasham Co., final concentration: 1 nM) (50 mM Tris-HCl, pH 7.4; 4.6 mM manganese chloride, 800 μg/ml BSA, 8 μg/ml chymostatin, 8 μg/ml leupeptin, 80 μg/ml bacitracin, […] phosphoramidon) was added a crude ileum membrane fraction solution (250 μl), followed by incubation at room temperature for 30 minutes.
At the end of this time, a membrane ingredient was recovered on a GF/B glass fiber filter (manufactured by Whatman Co.) using an automatic filtering device (manufactured by Brandel Co.). The glass filter was used after pre-treatment with a 0.1% polyethyleneimine solution for about 4 hours so as to inhibit non-specific binding as little as possible.
The membrane ingredient-recovered filter was transferred to a mini-plastic vial containing a pico flow (4 ml) and the radioactivity was measured using a liquid scintillation counter (LSC3000, manufactured by Beckman Co.).

A further assay has as its target T2, NK1 receptors (Cavia porcellus, UniProt P30547).
T2 construct: A crude membrane fraction was prepared from the lung of male Hartley guinea pigs; from tissue; host or cells: guinea pig lung (crude membrane fraction)
The assay can be described thus: NK1 Receptor Binding Test. Also noted: species or system guinea pig. As for the experimental part: (a) Preparation of Crude Lung Membrane Fraction
A crude membrane fraction was prepared from the lung of male Hartley guinea pigs. The guinea pigs were bled from the cava abdominalis under chloroform anaesthesia and the pulmonary airway tissue was extracted immediately.
as §1, with “The extracted lung was perfused with a buffer (1) (50 mM Tris-HCl, pH 7.4), thinly cut in the buffer, and then homogenised in a buffer (2) [buffer (1) containing 120 mM sodium chloride and 5 mM potassium chloride] using a Polytron homogenizer. The tissue” for “The tissue”, “EDTA and 300 mM potassium” for “EDTA and 30 mM potassium”
as §2, §3
To a mixed solution (250 μl) of the test drug and [^3H]-substance P (final concentration: 1 nM) (50 mM Tris-HCl, pH 7.4; 6 mM manganese chloride, 800 μg/ml BSA, 8 μg/ml chymostatin, 8 μg/ml leupeptin, 80 μg/ml bacitracin, 20 μg/ml phosphoramidon) was added a crude lung membrane fraction solution (250 μl), followed by incubation at room temperature for 30 minutes.
At the end of this time, a lung membrane ingredient was recovered on a GF/B glass fiber filter (manufactured by Whatman Co.) using an automatic filtering device (manufactured by Brandel Co.).
The glass filter was used after being pre-treated with a 0.1% polyethyleneimine solution for about 4 hours so as to inhibit non-specific binding as little as possible. The membrane ingredient-recovered filter was transferred to a mini-plastic vial containing a pico flow (4 ml) and the radioactivity was measured using a liquid scintillation counter (LSC3000, manufactured by Beckman Co.).

[3] abbreviates: [3H]-SR-48968 1 nM, crude ileum membrane fraction of male Hartley guinea pigs, read-out: IC50 (converted).
Setting [4] is: [3H]-substance P 1 nM, crude lung membrane fraction of male Hartley guinea pigs, read-out: IC50 (converted).

T2 sequence (P30547 whole entry): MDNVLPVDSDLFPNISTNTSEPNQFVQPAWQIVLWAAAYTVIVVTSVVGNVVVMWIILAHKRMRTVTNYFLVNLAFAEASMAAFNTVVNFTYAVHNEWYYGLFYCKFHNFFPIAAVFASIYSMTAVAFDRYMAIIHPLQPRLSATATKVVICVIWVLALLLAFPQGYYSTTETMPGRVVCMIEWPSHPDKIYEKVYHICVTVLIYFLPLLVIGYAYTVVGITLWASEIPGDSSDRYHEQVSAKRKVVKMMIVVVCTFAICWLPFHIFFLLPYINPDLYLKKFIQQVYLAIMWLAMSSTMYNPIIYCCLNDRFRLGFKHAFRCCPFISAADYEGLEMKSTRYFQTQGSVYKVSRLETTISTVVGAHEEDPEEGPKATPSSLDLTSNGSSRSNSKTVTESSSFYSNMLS

For `COc1cc(C(=O)N2CCOC(CCN3CCC4(CC3)c3ccccc3C[S+]4[O-])(c3ccc(Cl)c(Cl)c3)C2)cc(OC)c1OC` [Example 76, 1-{2-[(2R)-(3,4-Dichlorophenyl)-4-(3,4,5-trimethoxybenzoyl)morpholin-2-yl]ethyl}spiro[benzo[c]thiophene-1(3H),4′-piperidine]-(2S)-oxide], the ID50 in assay [1] and in assay [2] was 0.047 mg/kg throughout.

For `Cc1cc(C)cc(C(=O)N(C)C[C@@H](CCN2CCC3(CC2)CN(S(C)(=O)=O)c2ccccc23)c2ccc(Cl)c(Cl)c2)c1` [Compound A], the IC50 on NK2 receptors (setting [3]) is 28.6 nM; at NK1 receptors (setting [4]) it was 60.4 nM. The ID50 in assay [1] is over 10 mg/kg; in assay [2], 5.8 mg/kg.

In the case of `CN(C[C@@H](CCN1CCC2(CCc3ccccc32)CC1)c1ccc(Cl)c(Cl)c1)C(=O)c1ccccc1` [Compound B], the half-inhibitory concentration (IC50) was 4.22 nM on NK2 receptors and over 1920 nM on NK1 receptors. For the same molecule, the ID50 in assay [1] is 0.37 mg/kg; in assay [2] it was over 10 mg/kg.

For `COc1cc(C(=O)N2CC[C@](CCN3CCC(C(N)=O)(c4ccccc4)CC3)(c3ccc(Cl)c(Cl)c3)C2)cc(OC)c1OC` [Compound C], the IC50 is 48.4 nM on NK2 receptors (setting [3]) and 10.1 nM at NK1 receptors (setting [4]). In addition, the “activity in NK2 binding test (in words)” value on NK2 receptors (comment on Table 5) is on record as “very weak activity”. Also, the ID50 in assay [1] is given as 1.7 mg/kg; in assay [2] it was 0.019 mg/kg.

Take `COc1cc(C(=O)N2CO[C@](CCN3CCC4(CC3)c3ccccc3C[S@+]4[O-])(c3ccc(Cl)c(Cl)c3)C2)cc(OC)c1OC` [Example 75, 1-{2-[(5R)-(3,4-Dichlorophenyl)-3-(3,4,5-trimethoxybenzoyl)oxazolidine-5-yl]ethyl}spiro[benzo[c]thiophene-1(3H),4′-piperidine]-(2S)-oxide]: the results for the IC50 at NK2 receptors (setting [3]) and on NK1 receptors (setting [4]) were 1.29 nM and 8.94 nM, respectively. The ID50 is listed as 0.074 mg/kg in assay [1] and 0.025 mg/kg in assay [2].
